In PubChem BioAssay (NCI):
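1) Cells in 96-well plates. 2) Compound, 48 h, 5 concentrations. 3) Linear interpolation between surrounding doses. 4) Unreached endpoint = highest concentration. Abbreviation: GI50, concentration required for 50% inhibition of growth. Definition used: TGI = concentration required for complete inhibition of growth.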

Experiments:
Assay in all cases: growth of human tumour cells (NCI), 48 h
SW-620 colon = system: SW-620 colon
HOP-92 NSCLC = system: HOP-92 NSCLC
LOX IMVI melanoma = system: LOX IMVI melanoma
HOP-62 NSCLC = system: HOP-62 NSCLC
HCT-116 colon = system: HCT-116 colon
SF-268 CNS = system: SF-268 CNS
NCI-H460 lung = system: NCI-H460 lung
NCI-H226 lung = system: NCI-H226 lung
SK-MEL-5 melanoma = system: SK-MEL-5 melanoma
SK-MEL-2 melanoma = system: SK-MEL-2 melanoma
MCF7 breast = system: MCF7 breast
UACC-257 melanoma = system: UACC-257 melanoma
SF-295 CNS = system: SF-295 CNS
OVCAR-3 ovarian = system: OVCAR-3 ovarian
SNB-19 CNS = system: SNB-19 CNS
OVCAR-8 ovarian = system: OVCAR-8 ovarian
MDA-MB-435 = system: MDA-MB-435
OVCAR-4 ovarian = system: OVCAR-4 ovarian
HCT-15 colon = system: HCT-15 colon
HS 578T breast = system: HS 578T breast
UACC-62 melanoma = system: UACC-62 melanoma
OVCAR-5 ovarian = system: OVCAR-5 ovarian
A549 NSCLC = system: A549 NSCLC
U251 CNS = system: U251 CNS
NCI-H522 lung = system: NCI-H522 lung
TK-10 renal = system: TK-10 renal
RXF 393 renal = system: RXF 393 renal
NCI-H23 lung = system: NCI-H23 lung
HT29 colon = system: HT29 colon
ACHN renal = system: ACHN renal
PC-3 prostate = system: PC-3 prostate
NCI/ADR-RES ovarian = system: NCI/ADR-RES ovarian
HL-60(TB) leukemia = system: HL-60(TB) leukemia
K-562 leukemia = system: K-562 leukemia
MDA-MB-231 breast = system: MDA-MB-231 breast
CCRF-CEM leukemia = system: CCRF-CEM leukemia
MALME-3M melanoma = system: MALME-3M melanoma
KM12 colon = system: KM12 colon
T-47D breast = system: T-47D breast
UO-31 renal = system: UO-31 renal
SR leukemia = system: SR leukemia
A498 renal = system: A498 renal
SF-539 CNS = system: SF-539 CNS
DU-145 prostate = system: DU-145 prostate
BT-549 breast = system: BT-549 breast
RPMI-8226 leukemia = system: RPMI-8226 leukemia
SN12C renal = system: SN12C renal
786-0 renal = system: 786-0 renal
MOLT-4 leukemia = system: MOLT-4 leukemia
COLO 205 colon = system: COLO 205 colon
SK-MEL-28 melanoma = system: SK-MEL-28 melanoma
M14 melanoma = system: M14 melanoma
IGROV1 ovarian = system: IGROV1 ovarian
HCC-2998 colon = system: HCC-2998 colon
SK-OV-3 ovarian = system: SK-OV-3 ovarian

COc1cc(-c2cc(/C=C/C(=O)c3ccc(N)cc3)[nH]n2)cc(OC)c1OC
GI50 (SW-620 colon): 2050 nM
TGI (SW-620 colon): 6370 nM
GI50 (HOP-92 NSCLC): 3680 nM
TGI (HOP-92 NSCLC): 27600 nM
GI50 (LOX IMVI melanoma): 1600 nM
TGI (LOX IMVI melanoma): 3280 nM
GI50 (HOP-62 NSCLC): 1770 nM
TGI (HOP-62 NSCLC): 3920 nM
GI50 (HCT-116 colon): 1100 nM
TGI (HCT-116 colon): 2610 nM
GI50 (SF-268 CNS): 1690 nM
TGI (SF-268 CNS): 3930 nM
GI50 (NCI-H460 lung): 1800 nM
TGI (NCI-H460 lung): 5100 nM
GI50 (NCI-H226 lung): 1710 nM
TGI (NCI-H226 lung): 3510 nM
GI50 (SK-MEL-5 melanoma): 1650 nM
TGI (SK-MEL-5 melanoma): 3060 nM
GI50 (SK-MEL-2 melanoma): 2850 nM
TGI (SK-MEL-2 melanoma): 7530 nM
GI50 (MCF7 breast): 1500 nM
TGI (MCF7 breast): 5420 nM
GI50 (UACC-257 melanoma): 1870 nM
TGI (UACC-257 melanoma): 4020 nM
GI50 (SF-295 CNS): 2550 nM
TGI (SF-295 CNS): 10900 nM
GI50 (OVCAR-3 ovarian): 1570 nM
TGI (OVCAR-3 ovarian): 3370 nM
GI50 (SNB-19 CNS): 2340 nM
TGI (SNB-19 CNS): 9980 nM
GI50 (OVCAR-8 ovarian): 2390 nM
TGI (OVCAR-8 ovarian): 9760 nM
GI50 (MDA-MB-435): 1660 nM
TGI (MDA-MB-435): 3210 nM
GI50 (OVCAR-4 ovarian): 1400 nM
TGI (OVCAR-4 ovarian): 5440 nM
GI50 (HCT-15 colon): 1370 nM
TGI (HCT-15 colon): 6760 nM
GI50 (HS 578T breast): 4330 nM
TGI (HS 578T breast): > 100000 nM
GI50 (UACC-62 melanoma): 1700 nM
TGI (UACC-62 melanoma): 3580 nM
GI50 (OVCAR-5 ovarian): 1780 nM
TGI (OVCAR-5 ovarian): 3750 nM
GI50 (A549 NSCLC): 2080 nM
TGI (A549 NSCLC): 7020 nM
GI50 (U251 CNS): 1420 nM
TGI (U251 CNS): 2770 nM
GI50 (NCI-H522 lung): 1620 nM
TGI (NCI-H522 lung): 3990 nM
GI50 (TK-10 renal): 4840 nM
TGI (TK-10 renal): 17500 nM
GI50 (RXF 393 renal): 1350 nM
TGI (RXF 393 renal): 3240 nM
GI50 (NCI-H23 lung): 2480 nM
TGI (NCI-H23 lung): 6790 nM
GI50 (HT29 colon): 1850 nM
TGI (HT29 colon): 4820 nM
GI50 (ACHN renal): 1610 nM
TGI (ACHN renal): 3670 nM
GI50 (PC-3 prostate): 2210 nM
TGI (PC-3 prostate): 10400 nM
GI50 (NCI/ADR-RES ovarian): 3800 nM
TGI (NCI/ADR-RES ovarian): 65800 nM
GI50 (HL-60(TB) leukemia): 1740 nM
TGI (HL-60(TB) leukemia): 10800 nM
GI50 (K-562 leukemia): 726 nM
TGI (K-562 leukemia): 23600 nM
GI50 (MDA-MB-231 breast): 2060 nM
TGI (MDA-MB-231 breast): 12200 nM
GI50 (CCRF-CEM leukemia): 556 nM
TGI (CCRF-CEM leukemia): 4170 nM
GI50 (MALME-3M melanoma): 2050 nM
TGI (MALME-3M melanoma): 4710 nM
GI50 (KM12 colon): 1140 nM
TGI (KM12 colon): 2880 nM
GI50 (T-47D breast): 1420 nM
TGI (T-47D breast): 4300 nM
GI50 (UO-31 renal): 1360 nM
TGI (UO-31 renal): 2860 nM
GI50 (SR leukemia): 326 nM
TGI (SR leukemia): 2750 nM
GI50 (A498 renal): 1640 nM
TGI (A498 renal): 4330 nM
GI50 (SF-539 CNS): 1300 nM
TGI (SF-539 CNS): 2660 nM
GI50 (DU-145 prostate): 1650 nM
TGI (DU-145 prostate): 4050 nM
GI50 (BT-549 breast): 1380 nM
TGI (BT-549 breast): 2820 nM
GI50 (RPMI-8226 leukemia): 479 nM
TGI (RPMI-8226 leukemia): 2770 nM
GI50 (SN12C renal): 1860 nM
TGI (SN12C renal): 4520 nM
GI50 (786-0 renal): 2040 nM
TGI (786-0 renal): 6490 nM
GI50 (MOLT-4 leukemia): 1910 nM
TGI (MOLT-4 leukemia): 8510 nM
GI50 (COLO 205 colon): 1740 nM
TGI (COLO 205 colon): 3340 nM
GI50 (SK-MEL-28 melanoma): 1860 nM
TGI (SK-MEL-28 melanoma): 4080 nM
GI50 (M14 melanoma): 1830 nM
TGI (M14 melanoma): 3860 nM
GI50 (IGROV1 ovarian): 3200 nM
TGI (IGROV1 ovarian): 10500 nM
GI50 (HCC-2998 colon): 2010 nM
TGI (HCC-2998 colon): 3630 nM
GI50 (SK-OV-3 ovarian): 2990 nM
TGI (SK-OV-3 ovarian): 8320 nM
